Active and inactive are the calls of the source. The rule behind the calls is not given here.
Tested on: MRP1 cells, doxorubicin viability shift, 10 uM compound
Assay: viability protection against doxorubicin, MRP-1 line – cell-based, doxorubicin EC50 shift, dose response (AID 844)
Details: for EC50: measured here: doxorubicin EC50 with compound

| SMILES | fold increase in Dox EC50 | EC50 |
| --- | --- | --- |
| Cc1nc(N2CCN(Cc3ccccc3)CC2)nc2c1C(=O)CC(c1ccco1)C2 (centres undefined) | 0.75 (inactive) | 4.04 µM |
| O=C1/C(=C\c2cccs2)N=C(c2cccs2)N1Nc1ccccc1 | 0.84 (inactive) | 4.55 µM |
| CC(C)(C)NC(=O)c1cccc(NC(=O)Cc2ccc(Br)cc2)c1 | 0.97 (inactive) | 5.23 µM |
| Brc1cc2c(cc1COc1ccc(-c3nn[nH]n3)cc1)OCO2 | 1.73 | 9.31 µM |
| CCOC(=O)N1CCN(C(=O)CSc2nnc(COc3ccc(Cl)cc3)o2)CC1 | 1.03 (inactive) | 5.55 µM |
| Cc1cc(C)c(S(C)(=O)=O)c(Sc2ccc(Cl)cc2)n1 | 0.81 (inactive) | 4.38 µM |
| Cc1ccc(-c2cc(C(F)F)nc(NCc3cccnc3)n2)cc1 | 0.52 (inactive) | 2.81 µM |
| Cc1cc(C)cc(-c2nc(-c3ccncc3)no2)c1 | 0.77 (inactive) | 4.13 µM |
| CCC(Sc1nc2ccccc2s1)C(=O)Nc1nnc(C)s1 (centres undefined) | 1.04 (inactive) | 5.61 µM |
| Cc1ccc(NC(=O)CCNC(=O)c2ccc(Cl)cc2)cc1F | 1.15 (inactive) | 6.19 µM |
| COc1ccc(C2C(C(=O)OCC(=O)NC(C)(C)C)CCC(=O)N2c2ccc(C)cc2)cc1OC (centres undefined) | 0.81 (inactive) | 4.36 µM |
| CC(C)Oc1ccc(CSC(=N)N)cc1 | 0.89 (inactive) | 4.81 µM |
| CCc1nnc(NC(=O)[C@@H](NC(=O)c2cccc(S(=O)(=O)N(CC)CC)c2)C(C)C)s1 | 0.4 (inactive) | 2.18 µM |
| CCc1nnc(NC(=O)C2CCCN2S(=O)(=O)c2ccc(C)cc2)s1 (centres undefined) | 1.04 (inactive) | 5.6 µM |
| COc1cccc(/C=N/NC(=O)CNC(=O)C2COc3ccccc3O2)c1O (centres undefined) | 0.12 (inactive) | 0.637 µM |
| CC(C)CC(=O)n1sc(NC(=O)c2ccccc2)nc1=O | 0.92 (inactive) | 4.95 µM |
| COCC(=O)Nc1nnc(COc2ccc(Cl)cc2)s1 | 1.44 (inactive) | 7.75 µM |
| CCN(CC)S(=O)(=O)c1ccc(NN=C(C#N)C#N)cc1 | 0.68 (inactive) | 3.7 µM |
| Cc1ccc(CC2SC(=Nc3ccccc3)N(c3ccccc3)C2=O)cc1 (centres undefined) | 1.69 | 9.1 µM |
| CCC(=O)c1ccc(N2CCOCC2)c(F)c1 | 1.32 (inactive) | 7.12 µM |
| COc1ccc(Cl)cc1C(=O)Nc1ccc2c(c1)OCO2 | 0.66 (inactive) | 3.57 µM |
| CCn1c(SCc2ccc(Cl)cc2)nc2nc3c(cc2c1=O)CCCC3 | 0.77 (inactive) | 4.17 µM |
| N#Cc1nc(COc2ccc(Br)cc2)oc1NCCN1CCOCC1 | 0.83 (inactive) | 4.5 µM |
| Cc1cccc(OCCNC(=O)c2ccc(Oc3ccc(C(F)(F)F)cc3[N+](=O)[O-])cc2)c1 | 1.12 (inactive) | 6.05 µM |
| COc1cccc(C2CC(c3ccc(Cl)cc3)Nc3nc(N)nn32)c1 (centres undefined) | 0.88 (inactive) | 4.77 µM |
| O=C(Nc1ncc(Cc2ccc(C(F)(F)F)cc2)s1)c1ccc(-c2cccc([N+](=O)[O-])c2)o1 | 0.71 (inactive) | 3.86 µM |

| SMILES | fold increase in Dox EC50 | EC50 |
| --- | --- | --- |
| O=C(O)c1ccc(N/N=C/c2ccc(F)c(F)c2)cc1 | 1.31 (inactive) | 7.07 µM |
| COc1ccc(NC2=Nc3ccccc3N3C2=Nc2c(c(C)nn2-c2ccc(C)cc2)C3c2cccnc2)cc1 (centres undefined) | 0.6 (inactive) | 3.24 µM |
| Cc1cc(N2CCN(c3cccc(C)c3C)CC2)nc(-c2ccccc2)n1 | 0.99 (inactive) | 5.37 µM |
| CC(=O)OCC(=O)[C@@]1(O)[C@H](C)C[C@H]2[C@@H]3CCC4=CC(=O)C=C[C@]4(C)[C@@]3(F)[C@@H](O)C[C@@]21C | 1 (inactive) | 5.42 µM |
| Cc1nc2cc(-c3ccsc3-n3c(C)ccc3C)[nH]n2c(=O)c1Cl | 0.74 (inactive) | 4 µM |
| CCc1nnc(NC(=O)c2ccc(S(=O)(=O)NCC(C)C)cc2)s1 | 0.53 (inactive) | 2.88 µM |
| Cc1ccc(C)c(N2CCN(C(=O)c3ccc4nc(-c5ccco5)c(-c5ccco5)nc4c3)CC2)c1 | 0.79 (inactive) | 4.25 µM |
| Cc1ccc(C)c2[nH]c(=O)c(CN(Cc3ccco3)S(=O)(=O)c3ccc4c(c3)OCCO4)cc12 | 0.88 (inactive) | 4.73 µM |
| O=C(COc1nsnc1N1CCOCC1)N/N=C/c1ccccc1O | 0.26 (inactive) | 1.39 µM |
| CCN(C(=O)c1cc2cc3ccc(C)cc3nc2o1)c1ccc(OC)cc1 | 0.64 (inactive) | 3.46 µM |
| Cc1cccc(-c2cc3nc(C)cc(N4CC(C)CC(C)C4)n3n2)c1 (centres undefined) | 0.49 (inactive) | 2.65 µM |
| Cc1cccc(-n2c(N)cc(=O)nc2SCC(=O)Nc2nnc(C)s2)c1 | 1.54 | 8.29 µM |
| COC(=O)c1ccc(NC(=O)C(=O)N2CCN(C(=S)Nc3cccc(OC)c3)CC2)cc1 | 1.28 (inactive) | 6.93 µM |
| COc1ccc(-c2nn(-c3ccccc3)cc2C(=O)Nc2nc(CC(C)=O)ns2)cc1 | 0.99 (inactive) | 5.32 µM |
| Cc1ccc(-c2nc(C3CCCN(S(=O)(=O)c4ccc(C)cc4)C3)no2)cc1 (centres undefined) | 1.08 (inactive) | 5.85 µM |
| Cc1cccc2cc(CN(Cc3cccs3)S(=O)(=O)c3ccc4c(c3)OCCO4)c(=O)[nH]c12 | 1.47 (inactive) | 7.94 µM |
| CC(=O)c1ccc(N2CCN(c3ccc(C(F)(F)F)cn3)CC2)cc1 | 0.56 (inactive) | 3 µM |
| Cc1cccc(N2CCN(C(=O)c3cc4c(=O)n(C)c5ccccc5c4n3C)CC2)c1C | 0.08 (inactive) | 0.44 µM |
| CCOC(=O)C1=C(C)Nc2sc(C(=O)c3ccc(C)cc3)c(N)c2C1c1ccc(C(=O)OC)cc1 (centres undefined) | 0.36 (inactive) | 1.96 µM |
| O=C(Nc1nnc(N2CCCCCC2)s1)c1cc(-c2ccc(Br)cc2)on1 | 0.91 (inactive) | 4.91 µM |
| O=C(CSc1ccccc1)Nc1nnc(COc2ccc(Cl)cc2)s1 | 0.43 (inactive) | 2.34 µM |
| O=c1cc(CN2CCN(c3cccc(Cl)c3)CC2)c2cc3c(cc2o1)CCCC3 | 0.74 (inactive) | 3.98 µM |
| O=C(Cn1c(=O)oc2cc(S(=O)(=O)N3CCCC3)ccc21)NCc1ccccn1 | 1.15 (inactive) | 6.19 µM |
| O=C1[C@@H]2C(Cc3ccc(O)cc3)NC3(C(=O)Nc4ccc(F)cc43)[C@@H]2C(=O)N1c1ccc(F)cc1 (some centres undefined) | 1.39 (inactive) | 7.52 µM |
| COc1ccc(/C=N/Nc2cc(C)nc(-n3nc(C)cc3C)n2)cc1 | 0.12 (inactive) | 0.656 µM |
| Cc1ccc(OCc2nnc(SCC(=O)N3c4ccccc4Sc4ccc(Cl)cc43)o2)cc1 | 0.85 (inactive) | 4.57 µM |

From PubChem BioAssay AID844 (SRMLSC, 2007)
